Calls of active or inactive are those of the source. The rule behind the calls is not given here.
Tests used:
[1] = target: Serine/threonine-protein kinase SIK1 (Homo sapiens) (UniProt P57059); experiment: Inhibition of SIK (unknown origin) at 10 uM by Ambit Kinomescan binding assay relative to control; values are per cent of control
[2] = target: Hepatocyte growth factor receptor (Homo sapiens) (UniProt P08581); experiment: Inhibition of MET ACT labeling site in human A-375 cells at 0.5 uM by KiNativ Profiling analysis relative to control; assay type: cell-based
[3] = target: Dual specificity mitogen-activated protein kinase kinase 2 (Homo sapiens) (UniProt P36507); experiment: Inhibition of MEK2 (unknown origin) at 10 uM by Ambit Kinomescan binding assay
[4] = target: Non-receptor tyrosine-protein kinase TYK2 (Homo sapiens) (UniProt P29597); experiment: Inhibition of TYK2 domain2 ACT labeling site in human A-375 cells at 5 uM by KiNativ Profiling analysis relative to control; assay type: cell-based
[5] = target: Proto-oncogene tyrosine-protein kinase Src (Homo sapiens, UniProt P12931); experiment: Inhibition of SRC K1 labeling site in human Huh-7 cells at 10 uM by KiNativ Profiling analysis relative to control; assay type: cell-based
[6] = target: Serine/threonine-protein kinase A-Raf (Homo sapiens) (UniProt P10398); experiment: Inhibition of ARAF Lys2 labeling site in human A-375 cells at 0.5 uM by KiNativ Profiling analysis relative to control; assay type: cell-based
[7] = target: Casein kinase I isoform epsilon (Homo sapiens) (UniProt P49674); experiment: Inhibition of CSNK1E (unknown origin) at 10 uM by Ambit Kinomescan binding assay
[8] = target: T1, Dual specificity mitogen-activated protein kinase kinase 4 (Homo sapiens) (UniProt P45985); experiment: Inhibition of MAP2K4 Lys1 labeling site in human A-375 cells at 0.5 uM by KiNativ Profiling analysis relative to control; assay type: cell-based
T1 sequence (whole entry): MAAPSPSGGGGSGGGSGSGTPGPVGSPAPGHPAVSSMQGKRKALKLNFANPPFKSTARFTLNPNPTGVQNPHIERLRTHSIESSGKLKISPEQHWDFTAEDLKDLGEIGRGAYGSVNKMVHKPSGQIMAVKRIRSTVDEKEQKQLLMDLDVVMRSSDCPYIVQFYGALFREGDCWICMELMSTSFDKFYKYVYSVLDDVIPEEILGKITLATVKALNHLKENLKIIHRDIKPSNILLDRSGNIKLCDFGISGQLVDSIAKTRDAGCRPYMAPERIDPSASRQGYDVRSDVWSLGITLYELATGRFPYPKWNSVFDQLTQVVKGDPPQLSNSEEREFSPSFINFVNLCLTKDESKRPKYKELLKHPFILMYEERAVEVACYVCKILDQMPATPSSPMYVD

[9] = target: Serine/threonine-protein kinase pim-2 (Homo sapiens) (UniProt Q9P1W9); experiment: Inhibition of PIM2 (unknown origin) at 1 uM by Ambit Kinomescan binding assay relative to control; values are per cent of control
[10] = target: Protein kinase C delta type (Homo sapiens) (UniProt Q05655); experiment: Inhibition of PRKCD (unknown origin) at 1 uM by Ambit Kinomescan binding assay relative to control; values are per cent of control
[11] = target: Transient receptor potential cation channel subfamily M member 6 (Homo sapiens) (UniProt Q9BX84); experiment: Inhibition of TRPM6 (unknown origin) at 1 uM by Ambit Kinomescan binding assay relative to control
Transient receptor potential cation channel subfamily M member 6 (Homo sapiens), sequence (Q9BX84 whole entry): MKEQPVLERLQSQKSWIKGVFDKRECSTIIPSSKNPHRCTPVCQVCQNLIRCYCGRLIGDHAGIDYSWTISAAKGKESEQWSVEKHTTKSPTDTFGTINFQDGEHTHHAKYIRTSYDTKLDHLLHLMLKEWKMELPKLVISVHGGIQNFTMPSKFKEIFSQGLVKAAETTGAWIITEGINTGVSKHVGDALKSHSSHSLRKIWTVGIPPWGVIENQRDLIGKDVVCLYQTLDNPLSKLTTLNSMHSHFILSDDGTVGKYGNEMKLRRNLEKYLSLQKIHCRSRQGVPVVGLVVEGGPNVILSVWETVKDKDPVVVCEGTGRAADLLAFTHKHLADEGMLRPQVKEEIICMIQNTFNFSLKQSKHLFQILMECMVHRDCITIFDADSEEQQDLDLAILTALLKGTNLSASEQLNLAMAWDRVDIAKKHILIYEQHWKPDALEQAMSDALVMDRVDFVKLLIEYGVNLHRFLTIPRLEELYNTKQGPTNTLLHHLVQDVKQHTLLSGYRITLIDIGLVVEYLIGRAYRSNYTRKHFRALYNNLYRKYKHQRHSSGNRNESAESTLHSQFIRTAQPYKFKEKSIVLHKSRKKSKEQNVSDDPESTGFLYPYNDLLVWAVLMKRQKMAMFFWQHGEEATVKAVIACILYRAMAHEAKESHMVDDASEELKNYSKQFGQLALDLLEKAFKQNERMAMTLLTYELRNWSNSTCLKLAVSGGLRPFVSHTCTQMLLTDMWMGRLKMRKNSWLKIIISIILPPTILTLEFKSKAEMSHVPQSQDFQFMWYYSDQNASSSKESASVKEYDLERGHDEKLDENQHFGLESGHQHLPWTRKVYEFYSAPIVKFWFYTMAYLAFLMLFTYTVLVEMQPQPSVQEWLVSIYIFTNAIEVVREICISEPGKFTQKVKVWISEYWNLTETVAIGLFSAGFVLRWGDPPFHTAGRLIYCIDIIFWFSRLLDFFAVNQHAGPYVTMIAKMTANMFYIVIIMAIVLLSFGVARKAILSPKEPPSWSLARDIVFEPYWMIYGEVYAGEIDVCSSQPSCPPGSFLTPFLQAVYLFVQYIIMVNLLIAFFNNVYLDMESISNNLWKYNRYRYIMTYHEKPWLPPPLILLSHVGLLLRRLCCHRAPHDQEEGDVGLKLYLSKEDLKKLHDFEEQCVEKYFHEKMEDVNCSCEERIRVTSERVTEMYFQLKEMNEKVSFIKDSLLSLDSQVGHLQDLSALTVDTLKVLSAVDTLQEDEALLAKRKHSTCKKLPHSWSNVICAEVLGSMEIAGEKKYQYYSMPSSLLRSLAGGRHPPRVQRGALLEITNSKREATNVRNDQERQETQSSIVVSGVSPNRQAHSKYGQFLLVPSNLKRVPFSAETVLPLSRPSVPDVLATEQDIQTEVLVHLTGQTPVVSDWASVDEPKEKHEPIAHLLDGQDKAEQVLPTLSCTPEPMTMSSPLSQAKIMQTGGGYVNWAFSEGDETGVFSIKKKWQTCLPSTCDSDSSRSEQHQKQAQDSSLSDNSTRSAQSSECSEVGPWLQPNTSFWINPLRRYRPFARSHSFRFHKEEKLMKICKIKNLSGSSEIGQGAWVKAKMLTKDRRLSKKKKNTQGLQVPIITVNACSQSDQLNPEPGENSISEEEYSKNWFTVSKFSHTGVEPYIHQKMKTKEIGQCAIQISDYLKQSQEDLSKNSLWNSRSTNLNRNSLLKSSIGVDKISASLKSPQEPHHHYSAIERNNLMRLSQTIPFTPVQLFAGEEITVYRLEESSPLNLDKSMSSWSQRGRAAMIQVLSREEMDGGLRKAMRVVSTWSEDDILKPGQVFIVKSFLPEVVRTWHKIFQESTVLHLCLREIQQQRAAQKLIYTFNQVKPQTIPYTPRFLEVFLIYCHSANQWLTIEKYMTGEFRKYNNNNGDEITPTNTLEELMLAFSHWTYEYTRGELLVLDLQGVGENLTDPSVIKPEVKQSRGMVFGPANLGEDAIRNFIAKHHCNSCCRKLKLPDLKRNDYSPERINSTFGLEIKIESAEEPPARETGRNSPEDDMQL

[12] = target: Calcium-dependent protein kinase 1 (Plasmodium falciparum) (UniProt P62344); experiment: Inhibition of Plasmodium falciparum PFCDPK1 at 1 uM by Ambit Kinomescan binding assay relative to control; values are per cent of control
[13] = target: Ephrin type-A receptor 1 (Homo sapiens) (UniProt P21709); experiment: Inhibition of EPHA1 (unknown origin) at 1 uM by Ambit Kinomescan binding assay relative to control; values are per cent of control
[14] = target: Serine/threonine-protein kinase B-raf (Homo sapiens, UniProt P15056); experiment: Inhibition of BRAF (unknown origin) at 1 uM by Ambit Kinomescan binding assay relative to control
[15] = target: RAC-alpha serine/threonine-protein kinase (Homo sapiens) (UniProt P31749); experiment: Inhibition of AKT1 ATP Loop labeling site in human A-375 cells at 5 uM by KiNativ Profiling analysis relative to control; assay type: cell-based
[16] = target: Tyrosine-protein kinase FRK (Homo sapiens) (UniProt P42685); experiment: Inhibition of FRK (unknown origin) at 1 uM by Ambit Kinomescan binding assay relative to control; values are per cent of control
[17] = system: eIF-2-alpha kinase GCN2 (Homo sapiens), Q9P2K8 [S808G]; experiment: Inhibition of GCN2 kinase domain 2 S808G mutant (unknown origin) at 1 uM by Ambit Kinomescan binding assay relative to control
eIF-2-alpha kinase GCN2 (Homo sapiens), Q9P2K8 [S808G], sequence (Q9P2K8 whole entry S808G, the tested form may be a part): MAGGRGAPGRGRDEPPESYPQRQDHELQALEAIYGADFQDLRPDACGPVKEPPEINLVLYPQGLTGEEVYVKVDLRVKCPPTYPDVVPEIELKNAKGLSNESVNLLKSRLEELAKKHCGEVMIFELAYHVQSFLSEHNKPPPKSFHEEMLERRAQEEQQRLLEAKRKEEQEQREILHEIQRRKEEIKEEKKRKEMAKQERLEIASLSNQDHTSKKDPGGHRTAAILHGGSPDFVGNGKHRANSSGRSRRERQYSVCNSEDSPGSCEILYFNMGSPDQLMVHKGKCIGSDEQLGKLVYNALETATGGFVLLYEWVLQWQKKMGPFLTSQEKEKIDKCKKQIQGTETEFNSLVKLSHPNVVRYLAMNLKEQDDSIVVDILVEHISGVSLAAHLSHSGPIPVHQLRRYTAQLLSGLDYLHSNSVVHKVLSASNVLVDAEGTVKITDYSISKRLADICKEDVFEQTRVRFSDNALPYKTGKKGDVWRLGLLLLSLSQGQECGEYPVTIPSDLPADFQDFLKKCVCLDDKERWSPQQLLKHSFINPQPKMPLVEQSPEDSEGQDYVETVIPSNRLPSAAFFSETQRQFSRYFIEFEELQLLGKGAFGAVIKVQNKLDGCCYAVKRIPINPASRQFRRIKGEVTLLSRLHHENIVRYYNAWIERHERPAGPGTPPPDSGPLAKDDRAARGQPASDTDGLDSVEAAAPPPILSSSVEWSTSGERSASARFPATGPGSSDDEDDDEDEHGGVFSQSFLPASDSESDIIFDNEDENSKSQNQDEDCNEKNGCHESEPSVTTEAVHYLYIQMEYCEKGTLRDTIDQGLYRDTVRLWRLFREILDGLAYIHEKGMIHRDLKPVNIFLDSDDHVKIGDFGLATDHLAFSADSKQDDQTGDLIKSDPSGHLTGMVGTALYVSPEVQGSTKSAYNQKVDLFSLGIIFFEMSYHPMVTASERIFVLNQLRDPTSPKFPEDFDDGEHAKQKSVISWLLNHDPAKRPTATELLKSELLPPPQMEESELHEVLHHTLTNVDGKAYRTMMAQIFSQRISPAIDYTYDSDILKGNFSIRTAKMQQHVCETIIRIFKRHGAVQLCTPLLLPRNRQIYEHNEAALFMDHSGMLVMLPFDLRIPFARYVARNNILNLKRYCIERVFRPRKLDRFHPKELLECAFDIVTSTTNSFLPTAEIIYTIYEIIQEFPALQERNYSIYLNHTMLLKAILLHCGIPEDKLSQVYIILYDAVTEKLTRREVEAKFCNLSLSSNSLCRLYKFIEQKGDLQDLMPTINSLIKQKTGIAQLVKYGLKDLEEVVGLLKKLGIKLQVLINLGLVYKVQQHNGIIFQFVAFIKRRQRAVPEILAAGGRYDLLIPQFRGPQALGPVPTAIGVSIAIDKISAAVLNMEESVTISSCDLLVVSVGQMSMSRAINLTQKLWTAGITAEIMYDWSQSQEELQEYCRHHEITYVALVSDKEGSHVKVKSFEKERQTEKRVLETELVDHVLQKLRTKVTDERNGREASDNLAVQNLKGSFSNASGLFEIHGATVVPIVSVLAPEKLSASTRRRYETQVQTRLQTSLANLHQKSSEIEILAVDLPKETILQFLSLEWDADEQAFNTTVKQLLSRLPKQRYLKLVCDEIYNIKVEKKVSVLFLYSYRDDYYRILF

[18] = target: 5'-AMP-activated protein kinase catalytic subunit alpha-2 (Homo sapiens) (UniProt P54646); experiment: Inhibition of AMPKa2 Lys2 labeling site in human A-375 cells at 5 uM by KiNativ Profiling analysis relative to control; assay type: cell-based
[19] = target: STE20/SPS1-related proline-alanine-rich protein kinase (Homo sapiens) (UniProt Q9UEW8); experiment: Inhibition of STK39 (unknown origin) at 1 uM by Ambit Kinomescan binding assay relative to control
[20] = target: Phosphatidylinositol 3-kinase catalytic subunit type 3 (Homo sapiens) (UniProt Q8NEB9); experiment: Inhibition of PIK3C3 ATP labeling site in human Huh-7 cell lysate at 1 uM by KiNativ Profiling analysis relative to control; assay type: subcellular
Phosphatidylinositol 3-kinase catalytic subunit type 3 (Homo sapiens), sequence (Q8NEB9 whole entry): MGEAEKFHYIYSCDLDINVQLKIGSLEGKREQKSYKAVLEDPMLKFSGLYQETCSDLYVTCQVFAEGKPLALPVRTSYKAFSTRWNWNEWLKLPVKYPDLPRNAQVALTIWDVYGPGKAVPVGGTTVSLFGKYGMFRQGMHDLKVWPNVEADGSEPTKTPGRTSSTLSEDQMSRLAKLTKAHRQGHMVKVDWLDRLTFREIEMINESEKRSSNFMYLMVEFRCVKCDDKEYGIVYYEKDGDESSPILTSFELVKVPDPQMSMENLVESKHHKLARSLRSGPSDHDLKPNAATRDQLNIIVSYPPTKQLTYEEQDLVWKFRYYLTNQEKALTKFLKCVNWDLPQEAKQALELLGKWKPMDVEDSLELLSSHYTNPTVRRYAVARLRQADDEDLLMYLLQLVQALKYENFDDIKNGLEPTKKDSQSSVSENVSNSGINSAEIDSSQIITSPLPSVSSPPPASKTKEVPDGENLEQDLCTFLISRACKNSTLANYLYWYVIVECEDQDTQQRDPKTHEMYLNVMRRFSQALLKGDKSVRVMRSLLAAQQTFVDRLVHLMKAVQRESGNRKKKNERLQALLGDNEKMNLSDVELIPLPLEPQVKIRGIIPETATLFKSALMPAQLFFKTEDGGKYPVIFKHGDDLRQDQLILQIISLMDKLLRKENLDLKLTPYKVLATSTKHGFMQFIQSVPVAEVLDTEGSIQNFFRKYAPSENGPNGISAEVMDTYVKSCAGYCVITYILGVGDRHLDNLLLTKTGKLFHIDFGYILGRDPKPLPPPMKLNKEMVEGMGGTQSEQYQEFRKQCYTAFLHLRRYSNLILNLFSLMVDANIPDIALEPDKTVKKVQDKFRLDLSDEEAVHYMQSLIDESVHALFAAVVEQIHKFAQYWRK

[21] = target: Cyclin-dependent kinase 6 (Homo sapiens) (UniProt Q00534); experiment: Inhibition of CDK6 Lys2 labeling site in human Huh-7 cells at 1 uM by KiNativ Profiling analysis relative to control; assay type: cell-based
Cyclin-dependent kinase 6 (Homo sapiens), sequence (Q00534 whole entry): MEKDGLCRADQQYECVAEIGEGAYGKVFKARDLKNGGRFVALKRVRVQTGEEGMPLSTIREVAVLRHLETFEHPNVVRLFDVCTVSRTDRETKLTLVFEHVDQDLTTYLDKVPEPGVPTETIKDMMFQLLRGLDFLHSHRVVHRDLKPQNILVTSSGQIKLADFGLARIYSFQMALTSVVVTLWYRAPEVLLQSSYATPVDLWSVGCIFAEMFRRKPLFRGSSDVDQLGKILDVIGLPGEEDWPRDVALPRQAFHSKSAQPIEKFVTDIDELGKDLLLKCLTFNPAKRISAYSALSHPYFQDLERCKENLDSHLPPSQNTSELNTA

[22] = target: Serine/threonine-protein kinase N2 (Homo sapiens) (UniProt Q16513); experiment: Inhibition of PKN2 Lys2 labeling site in human Huh-7 cell lysate at 1 uM by KiNativ Profiling analysis relative to control; assay type: subcellular
[23] = target: T2, Dual specificity mitogen-activated protein kinase kinase 6 (Homo sapiens) (UniProt P52564); experiment: Inhibition of MAP2K6 Lys1 labeling site in human Huh-7 cell lysate at 1 uM by KiNativ Profiling analysis relative to control; assay type: subcellular
T2 sequence (whole entry): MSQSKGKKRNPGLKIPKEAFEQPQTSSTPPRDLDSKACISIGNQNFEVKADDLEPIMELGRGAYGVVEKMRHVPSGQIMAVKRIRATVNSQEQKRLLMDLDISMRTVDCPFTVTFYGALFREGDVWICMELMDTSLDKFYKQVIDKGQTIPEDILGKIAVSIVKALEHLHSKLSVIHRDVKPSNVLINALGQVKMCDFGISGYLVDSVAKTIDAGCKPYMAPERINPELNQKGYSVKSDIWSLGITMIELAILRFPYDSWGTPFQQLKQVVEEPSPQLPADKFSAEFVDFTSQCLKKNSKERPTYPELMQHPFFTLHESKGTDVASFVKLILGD

Q: `CCN1CCN(Cc2ccc(NC(=O)c3ccc(C)c(Oc4ccnc5[nH]ccc45)c3)cc2C(F)(F)F)CC1` was tested. Which residual activity [1] did it give?
A: The residual activity was 5.3%.

Q: What about the inhibition [2] of the same compound?
A: Its inhibition is 14.4%.

Q: And the inhibition [3]?
A: Its inhibition is “inactive”.

Q: What about the inhibition [4] of the same compound?
A: The inhibition was 50.1%.

Q: What about the inhibition [5] of the same compound?
A: Its inhibition is 50.1%.

Q: And the inhibition [6]?
A: The inhibition was 18.4%.

Q: What about the inhibition [7] of the same compound?
A: The inhibition was “inactive”.

Q: What about the inhibition [8] of the same compound?
A: Its inhibition is -4%.

Q: How did the residual activity [9] turn out when `CCN1CCN(Cc2ccc(NC(=O)c3ccc(C)c(/C=C/c4cnc5[nH]ccc5c4OC)c3)cc2C(F)(F)F)CC1` was run?
A: Its residual activity is 100%.

Q: And the residual activity [10]?
A: The residual activity was 60%.

Q: And the inhibition [11]?
A: The inhibition was 100%.

Q: And the residual activity [12]?
A: Its residual activity is 4.3%.

Q: And the residual activity [13]?
A: The residual activity was 16%.

Q: And the inhibition [14]?
A: The inhibition was 17%.

Q: What about the inhibition [15] of the same compound?
A: Its inhibition is 10.4%.

Q: What about the residual activity [16] of the same compound?
A: The residual activity was 3.6%.

Q: And the inhibition [17]?
A: The inhibition was 11%.

Q: And the inhibition [18]?
A: Its inhibition is 18.5%.

Q: And the inhibition [19]?
A: The inhibition was 70%.

Q: Which results are given for `CNc1cc(Oc2cc(C(=O)Nc3cc(N4CCN(C)CC4)cc(C(F)(F)F)c3)ccc2C)ncn1`?
A: inhibition [20]: -4.2%; inhibition [21]: 24.4%; inhibition [22]: -8.4%; inhibition [23]: 5.3%

Source: ChEMBL document CHEMBL5696442, “Discovery of type II inhibitors of TGFβ-activated kinase 1 (TAK1) and mitogen-activated protein kinase kinase kinase kinase 2 (MAP4K2)” (J Med Chem, 2015)
